Reference: patent US10159256B2, “Organic pruning wound composition” (The Regents of the University of California, priority 2014, dated 2018)

Columns and labels:
Test in all cases: Micro- and macronutrients tested against trunk disease fungi
Settings in all cases: among all micro- and macronutrients tested
[1] = system: E. lata
Source text: (§1) However, these products are not registered as organic products, leaving organic growers with no alternatives for controlling trunk diseases.

[2] = system: D. seriata
Source text: as §1

[3] = system: P. viticola
Source text: as §1

[4] = system: Pa. chlamydospora
Source text: as §1

[5] = system: Pm. Alephilum
Source text: as §1

[Zn] [zinc (Zn), zinc]
most effective: effectiveness against E. lata [1] | effectiveness against D. seriata [2] | effectiveness against P. viticola [3] | effectiveness against Pa. chlamydospora [4] | effectiveness against Pm. Alephilum [5]

[B] [boron (B), boron]
most effective: effectiveness against E. lata [1] | effectiveness against D. seriata [2] | effectiveness against P. viticola [3] | effectiveness against Pa. chlamydospora [4] | effectiveness against Pm. Alephilum [5]
